Laboratory results reported in US12617837B2, “Composition for use in treatment of allergic diseases” (UNIVERSITY OF TSUKUBA, priority 2019, dated 2026).

Legend:
human IgG1 = assay: Glycan microarray probed with human IgG1 (control of Table 7); format: binding
Clec10a-Fc = biological target: T1, Clec10a-Fc (Mus musculus, UniProt P49300); assay: Sugar conjugate (glycan) microarray analysis of Clec10a-Fc (Table 7); format: binding; conditions: for Signal value, Clec10a-Fc: glycan microarray probed with Clec10a-Fc; for Signal value, Clec10a-Fc with EDTA: glycan microarray probed with Clec10a-Fc with EDTA
T1 construct: cloning the extracellular region of mouse Clec10a into a pME18S expression vector; made in house; host or cells: HEK293T cells
T1 sequence (P49300 57-304 limits assumed): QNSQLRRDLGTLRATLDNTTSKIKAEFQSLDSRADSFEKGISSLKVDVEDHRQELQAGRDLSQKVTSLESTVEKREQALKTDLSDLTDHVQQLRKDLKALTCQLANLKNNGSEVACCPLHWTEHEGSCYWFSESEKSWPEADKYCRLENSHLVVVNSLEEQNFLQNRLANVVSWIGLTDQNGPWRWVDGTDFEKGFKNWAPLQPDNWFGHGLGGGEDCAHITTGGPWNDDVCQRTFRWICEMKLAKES
Protocol: A sugar conjugate microarray containing 98 sugar conjugates (Table 3) was prepared according to a known method using a non-contact microarray printing robot (MicroSys 4000; Genomic Solutions).

Signal value, Clec10a-Fc (Clec10a-Fc)	Signal value, Clec10a-Fc with EDTA (Clec10a-Fc)	Binding of Clec10a-Fc in glycan microarray (Clec10a-Fc; Clec10a-Fc 10 μg/mL)	Compound	Signal value, human IgG1 (human IgG1)
0	0	–	CC(=O)N[C@@H]1[C@@H](O[C@@H]2O[C@@H](C)[C@@H](O)[C@@H](O)[C@@H]2O)[C@H](O)[C@@H](CO)O[C@H]1O [Fucα3GlcNAc]	0
0	0	–	O=C(CO)N[C@H]1[C@H]([C@H](O)[C@H](O)CO)O[C@@](O)(C(=O)O)C[C@@H]1O [Ne̊u5Gc]	0
0	0	–	CC(=O)N[C@@H]1[C@@H](O)[C@H](O[C@@H]2O[C@H](CO)[C@H](O)[C@H](O)[C@H]2O)[C@@H](COS(=O)(=O)O)O[C@H]1O [[6S]LN]	0
1	0	–	CC(=O)N[C@@H]1[C@@H](O[C@@H]2O[C@@H](C)[C@@H](O)[C@@H](O)[C@@H]2O)[C@H](O[C@@H]2O[C@H](CO)[C@H](O)[C@H](O[C@]3(C(=O)O)C[C@H](O)[C@@H](NC(C)=O)[C@H]([C@H](O)[C@H](O)CO)O3)[C@H]2O)[C@@H](CO)O[C@H]1O [sLex]	0
1867	0	–	OC[C@H]1O[C@@H](O)[C@H](O)[C@@H](O)[C@H]1O [βGal]	0
0	1	–	OC[C@H]1O[C@H](O[C@H]2[C@H](O)[C@@H](O)[C@H](O)O[C@@H]2CO)[C@H](O)[C@@H](O)[C@@H]1O [Maltose]	0
1137	0	–	CC(=O)N[C@H]1[C@@H](O[C@@H]2[C@@H](O)[C@H](O)O[C@H](CO)[C@@H]2O)O[C@H](CO)[C@H](O)[C@@H]1O [A-di]	0
3	0	–	OC[C@H]1O[C@H](O[C@H]2C(O)O[C@H](CO)[C@H](O)[C@@H]2O)[C@H](O)[C@@H](O)[C@H]1O (stereo partly shown) [Galα1-2Gal]	0
0	0	–	CC(=O)N[C@@H]1[C@@H](O[C@@H]2O[C@H](CO)[C@H](O)[C@H](OS(=O)(=O)O)[C@H]2O)[C@H](O[C@@H]2O[C@@H](C)[C@@H](O)[C@@H](O)[C@@H]2O)[C@@H](CO)O[C@H]1O [[3S]Lea]	0
0	0	–	CC(=O)N[C@@H]1[C@@H](O)[C@H](O[C@@H]2O[C@H](COS(=O)(=O)O)[C@H](O)[C@H](O)[C@H]2O)[C@@H](CO)O[C@H]1O [[6′S]LN]	0
4	0	–	CC(=O)N[C@@H]1[C@@H](O[C@@H]2O[C@H](CO)[C@H](O)[C@H](O[C@]3(C(=O)O)C[C@H](O)[C@@H](NC(C)=O)[C@H]([C@H](O)[C@H](O)CO)O3)[C@H]2O)[C@H](O)[C@@H](CO)O[C@H]1O [3′SiaLec]	0
0	0	–	CC(=O)N[C@H]1[C@H](O[C@@H]2[C@H](O)[C@@H](O)[C@H](O[C@H]3[C@H](O)[C@@H](O)[C@H](O)O[C@@H]3CO)O[C@@H]2CO)O[C@H](CO)[C@H](O)[C@@H]1O [Gα2]	0

Further lines, the compound ahead of its results:

Compound	Signal value, Clec10a-Fc (Clec10a-Fc)	Signal value, Clec10a-Fc with EDTA (Clec10a-Fc)	Binding of Clec10a-Fc in glycan microarray (Clec10a-Fc; Clec10a-Fc 10 μg/mL)	Signal value, human IgG1 (human IgG1)
CC(=O)N[C@@H]1[C@@H](O)[C@H](O[C@@H]2O[C@H](CO)[C@H](O)[C@H](O)[C@H]2NC(C)=O)[C@@H](CO)O[C@H]1O [LDN]	0	0	–	0
CC(=O)N[C@@H]1[C@@H](O)[C@H](O[C@@H]2O[C@H](CO)[C@H](O)[C@H](O[C@H]3O[C@H](CO)[C@H](O)[C@H](O)[C@H]3NC(C)=O)[C@H]2O[C@@H]2O[C@@H](C)[C@@H](O)[C@@H](O)[C@@H]2O)[C@@H](CO)O[C@H]1O [A]	0	0	–	0
CC(=O)N[C@H]1[C@H]([C@H](O)[C@H](O)CO)O[C@@](O[C@H](CO)[C@@H](O)[C@@H]2O[C@@](O[C@H](CO)[C@@H](O)[C@@H]3O[C@@](O)(C(=O)O)C[C@H](O)[C@H]3NC(C)=O)(C(=O)O)C[C@H](O)[C@H]2NC(C)=O)(C(=O)O)C[C@@H]1O [Sia3]	19	3	–	0
CC(=O)N[C@@H]1[C@@H](O)[C@H](O[C@@H]2O[C@H](CO)[C@H](O)[C@H](O[C@]3(C(=O)O)C[C@H](O)[C@@H](NC(C)=O)[C@H]([C@H](O)[C@H](O)CO)O3)[C@H]2O)[C@@H](CO)O[C@H]1O [[3′S]LN]	0	0	–	0
CC(=O)N[C@@H]1[C@@H](O)[C@H](O)[C@@H](CO)O[C@H]1O [BGlcNAc]	0	0	–	205
OC[C@H]1O[C@@H](O)[C@@H](O)[C@@H](O)[C@@H]1O [βMan]	0	0	–	0
CC(=O)N[C@@H]1[C@@H](O)[C@H](O[C@@H]2O[C@H](CO)[C@H](O)[C@H](O[C@H]3O[C@H](CO)[C@H](O)[C@H](O)[C@H]3O)[C@H]2O[C@@H]2O[C@@H](C)[C@@H](O)[C@@H](O)[C@@H]2O)[C@@H](CO)O[C@H]1O [B]	0	0	–	0
O=P(O)(O)OC[C@H]1O[C@H](O)[C@@H](O)[C@@H](O)[C@@H]1O [[6P]Man]	0	0	–	0
Chitobiose	0	0	–	0
CC(=O)N[C@H]1[C@H]([C@H](O)[C@H](O)CO)O[C@@](O[C@H](CO)[C@@H](O)[C@@H]2O[C@@](O)(C(=O)O)C[C@H](O)[C@H]2NC(C)=O)(C(=O)O)C[C@@H]1O [Siα2]	0	0	–	0
OC[C@H]1O[C@H](O)[C@@H](O)[C@@H](O)[C@@H]1O [αMan]	0	0	–	0
O=S(=O)(O)O[C@@H]1[C@@H](O)[C@H](O)O[C@H](CO)[C@@H]1O [[3S] βGal]	3	0	–	0
CC(=O)N[C@@H]1[C@@H](O[C@@H]2O[C@H](CO)[C@H](O)[C@H](O)[C@H]2O)[C@H](O)[C@@H](CO)O[C@H]1O [Lec]	2414	0	–	0
CC(=O)N[C@@H]1[C@@H](O[C@@H]2O[C@H](CO)[C@H](O)[C@H](O)[C@H]2O[C@@H]2O[C@@H](C)[C@@H](O)[C@@H](O)[C@@H]2O)[C@H](O[C@@H]2O[C@@H](C)[C@@H](O)[C@@H](O)[C@@H]2O)[C@@H](CO)O[C@H]1O [Leb]	0	0	–	0
CC(=O)N[C@@H]1[C@@H](O[C@H]2O[C@H](CO)[C@H](O)[C@H](O)[C@H]2O)[C@@H](O)[C@@H](CO)O[C@@H]1O [Core8]	0	0	–	0
CC(=O)N[C@@H]1[C@@H](O[C@@H]2O[C@H](CO)[C@H](O)[C@H](O)[C@H]2NC(C)=O)[C@@H](O)[C@@H](CO)O[C@H]1O [di-GalNAcβ]	65	0	–	0
αGalNAc [Tn antigen]	682	0	binds	0
OC[C@H]1O[C@H](OCC2O[C@@H](O)[C@H](O)[C@@H](O)[C@@H]2O)[C@H](O)[C@@H](O)[C@H]1O (stereo partly shown) [Melibiose]	45	0	–	0
CC(=O)N[C@@H]1[C@@H](O[C@@H]2O[C@H](CO)[C@@H](O)[C@H](O)[C@H]2NC(C)=O)[C@@H](O)[C@@H](CO)O[C@@H]1O [Core3]	0	0	–	0
OC[C@H]1O[C@@H](O[C@H]2[C@H](O)[C@@H](O)[C@H](O)O[C@@H]2CO)[C@H](O)[C@@H](O)[C@H]1O [Lac]	4850	0	–	0
CC(=O)N[C@@H]1[C@@H](O[C@@H]2O[C@H](CO)[C@@H](O)[C@H](O)[C@H]2NC(C)=O)[C@@H](O)[C@@H](CO[C@@H]2O[C@H](CO)[C@@H](O)[C@H](O)[C@H]2NC(C)=O)O[C@@H]1O [Core4]	0	0	–	0
C[C@@H]1O[C@@H](O[C@@H]2[C@@H](O)[C@@H](O)[C@@H](CO)O[C@H]2O)[C@@H](O)[C@H](O)[C@@H]1O [Fucα2Gal]	0	0	–	0
CC(=O)N[C@@H]1[C@@H](O[C@@H]2O[C@H](CO)[C@H](O)[C@H](O)[C@H]2O)[C@@H](O)[C@@H](CO)O[C@@H]1O [T (Core1)]	2504	0	–	0
